Reference: patent US10918645B2 (LIFEARC, priority 2016, dated 2021)

Experiments:
LRRK2 G2019S = LRRK2 G2019S (Homo sapiens (Human), UniProt Q5S007, G2019S); test: Adapta Kinase Assay (LRRK2_IC50 assay); type: biochemical; settings: inhibition of LRRK2 G2019S
Method: In Adapta™ Kinase Assay (LRRK2_IC50 assay): the Kinase Reaction Buffer contained 5× Kinase Buffer S (Life Technologies, PV5213) and 2 mM DTT (Life Technologies, P2325).
The Adapta® universal kinase assay is a homogenous, fluorescent based immunoassay for the detection of ADP. In contrast to ATP depletion assays, the Adapta® assay is extremely sensitive to ADP formation such that a majority of the signal change occurs in the first 10-20% conversion of ATP to ADP. This makes the Adapta® universal kinase assay ideally suited for use with low activity kinases.
Prepare a 1× solution of kinase reaction buffer from the 5× Kinase Buffer S stock (listed above) by adding 2 ml of 5× stock to 8 ml of H2O to make 10 ml of 1× kinase reaction buffer. To this, add 20 μl of 1 M DTT.
Kinase reactions are performed in a 10 μl volume in low-volume 384-well plates. […] Other non—treated assay plates, while not tested, may also be suitable. The concentration of substrate in the assay is 100 μM, and the 1× kinase reaction buffer consists of 50 mM Tris-HCl pH8.5, 10 mM MgCl2, 1 mM EGTA, 0.01% Brij-35, and 2 mM DTT, plus any additional additives that may be required for a specific kinase. […] The plate is allowed to equilibrate at room temperature for at least 30 minutes before being read on a plate reader configured for Adapta™ TR-FRET.
The data presented in this document were generated using a BMG LABTECH PHERAstar plate reader using the appropriate filters and instrument settings for Adapta™. The Test Compounds are screened in 1% DMSO (final) in the well. For 8 point titrations, 5-fold serial dilutions are conducted from the starting concentration.
IC50 estimates were obtained using the software XLfit (IDBS Inc.).

[1] = molecular target: LRRK2 (phospho S935) in Drosophila brain lysates (Homo sapiens (Human), UniProt Q5S007, G2019S); test: Drosophila model kinase assays at week 6; type: in vivo; settings: ratio of phosphate LRRK2 protein to Flag protein, significance compared to DMSO negative control
Sequence of LRRK2 (phospho S935) in Drosophila brain lysates (Q5S007 whole entry G2019S): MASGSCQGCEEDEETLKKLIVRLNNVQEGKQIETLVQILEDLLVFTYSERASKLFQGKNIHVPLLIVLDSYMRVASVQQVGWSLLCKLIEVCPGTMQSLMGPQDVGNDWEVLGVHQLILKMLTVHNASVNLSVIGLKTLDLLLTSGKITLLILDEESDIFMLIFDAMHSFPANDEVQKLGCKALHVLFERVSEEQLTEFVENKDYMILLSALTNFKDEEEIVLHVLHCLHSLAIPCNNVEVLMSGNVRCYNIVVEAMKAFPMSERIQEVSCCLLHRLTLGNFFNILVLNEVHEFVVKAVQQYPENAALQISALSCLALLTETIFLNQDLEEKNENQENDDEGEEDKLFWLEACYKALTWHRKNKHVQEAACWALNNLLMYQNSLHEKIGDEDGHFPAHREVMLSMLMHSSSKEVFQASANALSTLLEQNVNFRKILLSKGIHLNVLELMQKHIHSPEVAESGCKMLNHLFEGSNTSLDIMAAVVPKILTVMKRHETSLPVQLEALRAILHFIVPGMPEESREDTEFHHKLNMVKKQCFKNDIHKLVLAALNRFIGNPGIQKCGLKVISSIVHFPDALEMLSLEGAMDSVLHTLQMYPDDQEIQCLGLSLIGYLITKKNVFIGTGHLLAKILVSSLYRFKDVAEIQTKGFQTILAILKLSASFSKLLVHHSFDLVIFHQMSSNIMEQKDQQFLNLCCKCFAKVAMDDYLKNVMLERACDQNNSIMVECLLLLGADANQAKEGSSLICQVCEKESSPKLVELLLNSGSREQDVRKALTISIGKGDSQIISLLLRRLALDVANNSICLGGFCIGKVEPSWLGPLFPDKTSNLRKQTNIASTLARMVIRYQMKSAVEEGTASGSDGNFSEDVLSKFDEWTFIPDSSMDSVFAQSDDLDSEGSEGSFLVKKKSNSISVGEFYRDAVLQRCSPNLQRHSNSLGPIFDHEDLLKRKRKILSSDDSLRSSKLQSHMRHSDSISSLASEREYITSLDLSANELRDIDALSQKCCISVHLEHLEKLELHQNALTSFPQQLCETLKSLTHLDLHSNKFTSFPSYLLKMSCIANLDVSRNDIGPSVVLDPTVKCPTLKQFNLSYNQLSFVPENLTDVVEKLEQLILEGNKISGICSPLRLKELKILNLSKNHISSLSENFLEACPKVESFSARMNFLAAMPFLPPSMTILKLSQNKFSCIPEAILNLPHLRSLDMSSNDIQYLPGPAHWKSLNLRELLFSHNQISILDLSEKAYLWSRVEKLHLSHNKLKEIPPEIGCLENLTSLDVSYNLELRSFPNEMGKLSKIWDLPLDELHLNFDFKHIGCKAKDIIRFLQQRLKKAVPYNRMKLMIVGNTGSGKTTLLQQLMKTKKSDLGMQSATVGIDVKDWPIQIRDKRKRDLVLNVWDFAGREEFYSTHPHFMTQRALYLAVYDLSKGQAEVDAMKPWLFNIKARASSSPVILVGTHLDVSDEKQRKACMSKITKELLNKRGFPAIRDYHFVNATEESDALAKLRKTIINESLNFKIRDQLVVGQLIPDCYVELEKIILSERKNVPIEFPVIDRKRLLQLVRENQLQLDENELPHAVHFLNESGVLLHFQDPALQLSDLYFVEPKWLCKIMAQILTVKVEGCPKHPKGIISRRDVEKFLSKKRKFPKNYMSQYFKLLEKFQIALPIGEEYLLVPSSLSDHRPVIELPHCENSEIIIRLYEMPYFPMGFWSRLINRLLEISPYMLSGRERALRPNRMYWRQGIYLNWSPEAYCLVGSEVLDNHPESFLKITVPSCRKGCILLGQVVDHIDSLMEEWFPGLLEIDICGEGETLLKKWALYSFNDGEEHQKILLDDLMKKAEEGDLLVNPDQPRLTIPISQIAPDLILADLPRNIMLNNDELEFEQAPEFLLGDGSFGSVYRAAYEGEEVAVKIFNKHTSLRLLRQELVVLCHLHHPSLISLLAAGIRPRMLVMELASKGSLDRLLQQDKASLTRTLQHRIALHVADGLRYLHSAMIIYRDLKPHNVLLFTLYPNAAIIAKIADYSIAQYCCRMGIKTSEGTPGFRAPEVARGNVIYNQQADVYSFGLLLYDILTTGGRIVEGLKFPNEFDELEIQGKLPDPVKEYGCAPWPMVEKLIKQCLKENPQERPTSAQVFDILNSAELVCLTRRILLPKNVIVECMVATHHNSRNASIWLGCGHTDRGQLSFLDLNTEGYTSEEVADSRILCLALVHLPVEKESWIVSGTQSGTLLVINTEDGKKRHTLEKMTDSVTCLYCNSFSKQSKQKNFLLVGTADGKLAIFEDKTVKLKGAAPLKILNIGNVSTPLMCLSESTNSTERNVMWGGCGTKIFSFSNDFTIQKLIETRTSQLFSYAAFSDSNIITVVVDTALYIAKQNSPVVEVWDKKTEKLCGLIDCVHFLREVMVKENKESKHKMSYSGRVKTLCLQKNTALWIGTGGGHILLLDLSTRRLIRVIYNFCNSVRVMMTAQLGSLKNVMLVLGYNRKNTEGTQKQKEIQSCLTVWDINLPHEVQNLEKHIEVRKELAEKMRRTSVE
Method: The 10 μM GW5074 was used for the positive control. The negative control group was DMSO control (all compounds were dissolved in DMSO with 1:1000 dillution). The Drosophila were maintained at 25° C. on a 12 hour light-12 hour dark cycle. GW5074 was used as positive control [47].
The adult Drosophila heads were homogenized on ice, and the brain lysates were performed kinase reaction in kinase reaction buffer with ATP and DTT.
Then the lysates were electrophoresed through 12% SDS-PAGE gels and transferred to PVDF membranes (Millipore). The membranes were blocked in TBST with 5% skimmed milk for 1 hour at room temperature and then incubated in anti-LRRK2 pSer935 antibody (Abcam, ab133450) and anti-Flag antibody overnight at 4° C.
The proteins were detected with HRP-conjugated secondary antibodies and ECL detection reagents. The optical density of immunoblotting was analysed by Image J software and the ratio of phosphate LRRK2 protein compare to Flag protein were calculated and the data were analysed by GraphPad PRISM® 6.0 software.

[2] = tested on: transgenic Drosophila expressing LRRK2-G2019S in dopamine (DA) neurons; test: Drosophila model survival rate; type: in vivo; settings: significance compared to DMSO negative control
Text: (§1) Drosophila model was used to evaluate Examples in vivo. The GAL4/UAS system developed by Andrea Brand and Norbert Perrimon in 1993 [45] was used to generate transgenic Drosophila expressing LRRK2-G2019S in dopamine (DA) neurons. The system has two parts: the GAL4 gene, encoding the yeast transcription activator protein GAL4, and the UAS (Upstream Activation Sequence), an enhancer to which GAL4 specifically binds to activate gene transcription. This system takes advantage of the yeast GAL4 transcription factor, which binds specifically to the UAS.
To express LRRK2-G2019S in DA neurons, the UAS-Wild Type-LRRK2 and UAS-G2019S-LRRK2 transgenes were combined with the dopa decarboxylase (ddc)-GAL4 driver. The 10 μM GW5074 was used for the positive control. […]
Twenty newly enclosed female Drosophila were collected and placed in a food vial. The Drosophila were moved to fresh food vials every other day at which time deaths were scored.
Based on Drosophila′ survival curve, the 50% survival time parameter indicates the time at which half of the Drosophila remained alive and was used to compare the survival ratio between the different groups. The mean 50% survival times and the standard errors were calculated based on 4 separate experiments for each group. The data were analysed by GraphPad PRISM® 6.0 software.

[3] = tested on: transgenic Drosophila expressing LRRK2-G2019S in dopamine (DA) neurons; test: Drosophila model climbing assay (negative geotaxis); type: in vivo; settings: significance compared to DMSO negative control
Text: as §1
To express LRRK2-G2019S in DA neurons, the UAS-Wild Type-LRRK2 and UAS-G2019S-LRRK2 transgenes were combined with the dopa decarboxylase (ddc)-GAL4 driver. The 10 μM GW5074 was used for the positive control. The negative control group was DMSO control (all compounds were dissolved in DMSO with 1:1000 dillution). The Drosophila were maintained at 25° C. on a 12 hour light-12 hour dark cycle. GW5074 was used as positive control.
The negative geotaxis assay was used to analyse the locomotors ability of the Drosophila. Twenty Drosophila from each vial and 4 vials for each group were performed the climbing assay weekly.
The tested Drosophila were transferred into a vertical plastic tube (15 cm tall, 1.5 cm in diameter). After 30 min of rest at room temperature, the Drosophila were gently tapped to the bottom of the tube, the numbers of Drosophila that could climb to or above the test line within 10 seconds were counted and the percent were calculated.
The climbing abilities were analysed based on three separate experiments for each vial and the data were analysed by GraphPad PRISM® 6.0 software.

Sequence of LRRK2 G2019S (Q5S007 970-2527 G2019S): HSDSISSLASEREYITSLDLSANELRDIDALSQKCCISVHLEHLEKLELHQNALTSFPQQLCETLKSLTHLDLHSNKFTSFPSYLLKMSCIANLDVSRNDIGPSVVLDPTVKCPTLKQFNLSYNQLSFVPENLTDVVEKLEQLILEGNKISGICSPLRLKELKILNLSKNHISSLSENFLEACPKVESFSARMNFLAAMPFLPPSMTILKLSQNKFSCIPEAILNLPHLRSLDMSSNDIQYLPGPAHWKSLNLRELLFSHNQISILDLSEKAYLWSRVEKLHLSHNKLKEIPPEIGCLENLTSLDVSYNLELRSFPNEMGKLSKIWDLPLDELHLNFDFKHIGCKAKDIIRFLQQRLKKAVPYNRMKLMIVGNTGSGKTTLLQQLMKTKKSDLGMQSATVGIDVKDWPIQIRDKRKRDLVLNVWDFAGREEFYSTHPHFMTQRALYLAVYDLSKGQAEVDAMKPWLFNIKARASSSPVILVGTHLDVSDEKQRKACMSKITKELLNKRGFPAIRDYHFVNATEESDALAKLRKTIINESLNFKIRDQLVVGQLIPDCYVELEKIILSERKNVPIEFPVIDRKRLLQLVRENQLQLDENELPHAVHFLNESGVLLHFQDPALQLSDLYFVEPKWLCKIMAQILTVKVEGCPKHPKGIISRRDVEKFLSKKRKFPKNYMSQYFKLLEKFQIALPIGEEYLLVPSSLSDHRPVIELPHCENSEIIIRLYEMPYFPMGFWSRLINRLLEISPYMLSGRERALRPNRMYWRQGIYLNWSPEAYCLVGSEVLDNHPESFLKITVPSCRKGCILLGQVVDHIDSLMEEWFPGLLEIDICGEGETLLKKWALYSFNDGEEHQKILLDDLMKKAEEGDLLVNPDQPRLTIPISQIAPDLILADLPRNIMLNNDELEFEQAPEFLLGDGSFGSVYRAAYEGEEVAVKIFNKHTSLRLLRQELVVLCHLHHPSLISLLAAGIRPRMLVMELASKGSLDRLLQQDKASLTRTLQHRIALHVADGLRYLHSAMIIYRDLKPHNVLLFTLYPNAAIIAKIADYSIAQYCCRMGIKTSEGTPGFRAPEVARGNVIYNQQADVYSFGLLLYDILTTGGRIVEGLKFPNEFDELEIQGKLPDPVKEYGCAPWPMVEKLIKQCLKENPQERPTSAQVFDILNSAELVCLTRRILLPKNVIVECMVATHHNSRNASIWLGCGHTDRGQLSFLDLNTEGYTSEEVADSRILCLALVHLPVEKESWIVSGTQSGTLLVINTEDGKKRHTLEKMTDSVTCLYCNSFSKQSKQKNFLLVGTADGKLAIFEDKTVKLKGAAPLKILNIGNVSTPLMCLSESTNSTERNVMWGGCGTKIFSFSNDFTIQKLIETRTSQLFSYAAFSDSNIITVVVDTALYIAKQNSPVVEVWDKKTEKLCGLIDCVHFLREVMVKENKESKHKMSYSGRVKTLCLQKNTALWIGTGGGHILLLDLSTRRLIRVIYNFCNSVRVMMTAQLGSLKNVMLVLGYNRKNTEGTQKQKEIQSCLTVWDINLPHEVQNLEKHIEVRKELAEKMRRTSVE

| SMILES | IC50 (LRRK2 G2019S) [nM] | Kinase Assays [1] | Survival Rate [2] | Climbing Assay 3 weeks ([3]; 3 weeks) | Climbing Assay 4 weeks ([3]; 4 weeks) | Climbing Assay 5 weeks ([3]; 5 weeks) | Climbing Assay 6 weeks ([3]; 6 weeks) |
| --- | --- | --- | --- | --- | --- | --- | --- |
| c1cc2[nH]nc3c2c(n1)N(C1CCOCC1)CCC3 [Example 29, 6-(tetrahydro-2H-pyran-4-yl)-6,7,8,9-tetrahydro-2H-1,2,5,6-tetraazabenzo[cd]azulene] | 150 | * (P < 0.05, compared to DMSO negative control) | * (P < 0.05, compared to DMSO negative control) | * (P < 0.05, compared to DMSO negative control) | ** (P < 0.01, compared to DMSO negative control) | * (P < 0.05, compared to DMSO negative control) | * (P < 0.05, compared to DMSO negative control) |
| CN1CCC(N2Cc3ccccc3-c3n[nH]c4ccnc2c34)CC1 [Example 55] | 50 |  |  |  |  |  |  |
